≈ marks a conversion by molar mass, not a printed value. Counter-ions that a name gives are not always drawn.
Experiments:
[1] = system: T. rubrum ATCC10218; assay: Measurement of antifungal activity (MIC, WST8 growth inhibition); assay type: cell-based; settings: Trichophyton rubrum, 96 h; 80% growth inhibition concentration; T. rubrum ATCC10218, RPMI1640/MOPS, 28° C., 4 days
Method: (§1) The compounds for evaluation were dissolved in dimethyl sulfoxide (DMSO) and used. As the test medium, RPMI1640 medium containing 0.165 M 3-morpholino propane sulfonic acid (MOPS) was used. As the test strain, T. mentagrophytes ATCC18748 or T. rubrum ATCC10218 was used. 100 μL of the test strain each at a concentration of 1×10^4 conidia/mL was dispensed, mixed with compounds for evaluation on 96 well half area plate so that the concentration of DMSO becomes 1%, and cultured at 28° C. for 3 days (for T. mentagrophytes) or for 4 days (for T. rubrum). Then, 5 μL of Cell Counting Kit8 (WST8) was added and the absorbances at 450 nm and 595 nm was measured as background. Subsequently, they were incubated at 28° C. for 5 hours (for T. mentagrophytes) or overnight (for T. rubrum) to color, and again the absorbances at 450 nm and 595 nm was measured, and then calculated the growth inhibition percentages using the differences from the background, and 80% growth inhibition concentration was regarded as MIC (μg/ml). Measurement of antifungal activity was conducted by the following method. Compounds for evaluation were dissolved in dimethyl sulfoxide (DMSO) and used. As the test medium, RPMI1640 medium containing 0.165 M 3-morpholinopropane sulfonic acid (MOPS) was used. As the test strain, T. mentagrophytes ATCC18748 or T. rubrum ATCC10218 was used. 100 μL of the test strain was dispensed at a concentration of 1×10^4 conidia/mL, mixed with compounds for evaluation on 96 well half area plate so that the concentration of DMSO becomes 1%, and cultured at a culture temperature of 28° C. for 3 days (for T. mentagrophytes) or for 4 days (for T. rubrum). Then, 5 μL of Cell Counting Kit8 (WST8) was added and the absorbances at 450 nm and 595 nm was measured as background. Subsequently, they were incubated at 28° C. for 5 hours (for T. mentagrophytes) or overnight (for T. rubrum), and again measured the absorbances at 450 nm and 595 nm was measured, and then calculated the growth inhibition percentages using the differences from the background, and 80% growth inhibition concentration was regarded as MIC (μg/ml).

[2] = system: T. mentagrophytes ATCC18748; assay: as above; assay type: cell-based; settings: Trichophyton mentagrophytes, 72 h; 80% growth inhibition concentration; T. mentagrophytes ATCC18748, RPMI1640/MOPS, 28° C., 3 days
Method: as §1

[3] = Nail permeability test (bovine hoof slice on agarose); assay type: in vitro ADME; settings: 2 μL of 10 mg/mL solution on bovine hoof slice (about 100 μm), 28° C., 5 days
Method: Compounds for evaluation were each dissolved in a solution of ethyl acetate:propylene glycol (1:1) or dimethyl sulfoxide at a concentration of 10 mg/mL. 2 μL each of the solutions was added to a bovine hoof slice placed on a low-melting-point agarose. After incubation at 28° C. for 5 days, the agaroses were collected, distilled water was added thereto, and the mixtures were heated and dissolved. The concentrations of the compound in the solutions were determined using a high performance liquid chromatography/mass spectrometry apparatus to obtain the amounts of the agents permeated through the hoof and to calculate the permeabilities of the respective agents. Since the permeability of bovine hoof and human nail correlates as described in J. Pharma. Pharmacol., vol. 49, pp. 866-872, 1997, the nail permeability test was conducted using a bovine hoof in the present invention. Example compounds and comparative compounds (amorolfine hydrochloride, terbinafine hydrochloride and ciclopirox) were each dissolved in a solution of ethyl acetate:propylene glycol (1:1) or dimethyl sulfoxide at a concentration of 10 mg/mL. […] The concentrations of the compounds in the solutions were determined using a high performance liquid chromatography/mass spectrometry apparatus to obtain the amounts of the agents permeated through the nail and calculate the permeabilities of the respective agents.

SMILES | MIC [1] | MIC [2] | Nail permeability [3]
Cc1nn(-c2ccccc2O)c(C)c1F [Example 53, 2-(4-Fluoro-3,5-dimethyl-1H-pyrazol-1-yl)phenol] | 4 to 16 µg/mL (≈ 19.4 to 77.6 µM) | 2 to 8 µg/mL (≈ 9.7 to 38.8 µM) | –
CC(=O)Oc1ccc(-n2nc(C)cc2C)c(O)c1 [Example 57, 4-(3,5-dimethyl-1H-pyrazol-1-yl)-3-hydroxyphenyl acetate] | 4 to 16 µg/mL | 2 to 8 µg/mL | –
CC(=O)Oc1ccc(-n2nc(C)c(C)c2C)c(O)c1 [Example 59, 3-hydroxy-4-(3,4,5-trimethyl-1H-pyrazol-1-yl)phenyl acetate] | 4 to 16 µg/mL | 2 to 8 µg/mL | –
Cc1cc(C)n(-c2cc(Cl)c(C)cc2O)n1 [Example 61, 4-chloro-2-(3,5-dimethyl-1H-pyrazol-1-yl)-5-methylphenol] | 16 to 32 µg/mL (≈ 67.6 to 135 µM) | 16 to 32 µg/mL (≈ 67.6 to 135 µM) | –
Cc1nn(-c2ccc(O)cc2O)c(C)c1Cl [Example 63, 4-(4-chloro-3,5-dimethyl-1H-pyrazol-1-yl)benzene-1,3-diol] | ≤ 2 µg/mL | ≤ 1 µg/mL | –
CN(C/C=C/C#CC(C)(C)C)Cc1cccc2ccccc12 [Terbinafine hydrochloride, reference compound] | ≤ 2 µg/mL | ≤ 1 µg/mL | E (<0.1%)

Results, then the compound that gave them:

MIC [1] | MIC [2] | Nail permeability [3] | SMILES
≤ 2 µg/mL | ≤ 1 µg/mL | E (<0.1%) | CCC(C)(C)c1ccc(CC(C)CN2C[C@@H](C)O[C@@H](C)C2)cc1 (some centres unmarked) [Amorolfine hydrochloride, reference compound]
≤ 2 µg/mL | ≤ 1 µg/mL | – | CCc1ccc(-n2nc(C)cc2C)c(O)c1 [Example 52, 2-(3,5-dimethyl-1H-pyrazol-1-yl)-5-ethylphenol]
≤ 2 µg/mL | ≤ 1 µg/mL | – | Cc1cc(C)n(-c2ccc(Br)cc2O)n1 [Example 54, 5-bromo-2-(3,5-dimethyl-1H-pyrazol-1-yl)phenol]
≤ 2 µg/mL | ≤ 1 µg/mL | – | Cc1nn(-c2ccc(Br)cc2O)c(C)c1Cl [Example 55, 5-bromo-2-(4-chloro-3,5-dimethyl-1H-pyrazol-1-yl)phenol]
≤ 2 µg/mL | ≤ 1 µg/mL | – | Cc1nn(-c2ccc(Br)cc2O)c(C)c1C [Example 56, 5-bromo-2-(3,4,5-trimethyl-1H-pyrazol-1-yl)phenol]
≤ 2 µg/mL | 2 to 8 µg/mL | – | CC(=O)Oc1ccc(-n2nc(C)c(Cl)c2C)c(O)c1 [Example 58, 4-(4-chloro-3,5-dimethyl-1H-pyrazol-1-yl)-3-hydroxyphenyl acetate]

— US8889727B2, “Topical antifungal agent” (Meiji Seika Pharma Co., Ltd., priority 2011, dated 2014)
